Entries after “also recorded” stand apart in the source; their conditions may differ. Like-named read-outs stand apart in the source and are kept apart here.
What was measured:
Human keratinocytes = experiment: 3H-Thymidine incorporation (keratinocyte proliferation); type: cell-based; settings: for increase of thymidine incorporation/proliferation over ethanol control: retinol 2.5×10^-8 M; for activity at 0.025 µM: 2.5 × 10^-8 M
Protocol: (§1) Human keratinocytes, isolated from neonatal foreskin by trypsin treatment were grown in Dulbecco Modification Eagle (DME) Hams F12 (1:1) medium/10% fetal calf serum in the presence of irradiated 3T3 mouse fibroblasts for establishing dividing keratinocyte colonies. Cells were grown under the above condition until their second passage and kept frozen for future use. […] On day 7, when the cells were 80-90% confluent, they were trypsinized and plated in the serum-free medium for the various experiments.
The incorporation of […] by cultured keratinocytes was used as an assay of keratinocyte proliferation. Thymidine is one of four deoxynucleosides which are the monomeric units of DNA, the universal library of genetic information in the animal kingdom. Prior to cell division of a somatic cell such as a keratinocyte, the complete genome of the cell undergoing cell division is replicated. This involves large scale DNA synthesis by the cell and enables both daughter cells to receive identical copies of the genetic material. When ^3 H-thymidine is included in the culture media of keratinocytes which are synthesizing DNA in preparation for cell division then the labelled nucleoside is incorporated into the newly synthesized DNA. The extent of incorporation of ^3 H-thymidine into a population of cells is proportional to the rate of DNA synthesis by this population of cells and therefore an indication of their cellular proliferation.
Keratinocytes (that were cultured as described above) were plated in 24 well plates at a density of 40,000 cells per well in 1 ml media. After incubation for four days or until the cells were 60-70% confluent, the media was changed. Test compounds were added (in triplicate) to the wells 24 hours after the media change, and four hours later 1μCi^3 H-Thymidine in 50 μl media was added per well. Cells were incubated for a further 24 hours. Media was removed from the cells, 10% ice cold trichloroacetic acid (TCA) added and plates were incubated on ice for 30 minutes. Cells were washed five times with 5% TCA and allowed to dissolve in 500 μl 0.1M NaOH for at least one hour (usually overnight). The preparations were neutralized with 0.1M HCl; 50 μl of the cell preparation was used to determine total protein content. Disintegrations per minute (DPM) from ^3 H labelling of DNA was determined by liquid scintillation counting of […] of the cell preparation. Thymidine incorporation results were expressed as DPM/μg protein.

[1] = tested on: TGase I (keratinocyte transglutaminase level); experiment: Transglutaminase (TGase I) ELISA assay (keratinocyte differentiation); type: cell-based, human
Protocol: as §1
During the process of terminal differentiation in the epidermis, a 15 nm thick layer of protein, known as the cornified envelope (CE) is formed on the inner surface of the cell periphery. The CE is composed of numerous distinct proteins which have been cross-linked together by the formation of N^ε -(γ-glutamyl) lysine isodipeptide bonds catalyzed by the action of at least two different transglutaminases (TGases) expressed in the epidermis. TGase I is expressed in abundance in the differentiated layers of the epidermis, especially the granular layer, but is absent in the undifferentiated basal epidermis. Thus TGase I is a useful marker of epidermal keratinocyte differentiation with high TGase I levels indicating a more differentiated state. An ELISA based TGase I assay, using a TGase I antibody, was used to assess the state of differentiation of the cultured keratinocytes in the examples that follow.
Keratinocytes (cultured as described above) were plated in 96 well plates at a density of 3,000 cells per well in 200 μl media. After incubation for four days the media was changed to media containing test compounds (six replicates per test). The cells were cultured for a further 72 hours after which time the media was aspirated and the plates stored at -70° C. Plates were removed from the freezer, and the cells washed with PBS. 100 μl sterile water was added and the cells were freeze fractured by freezing at -70° C. then thawing. The cells were incubated for one hour at room temperature (R/T) with PBS/3% BSA (wash buffer, bovine serum albumin), then rinsed with a fresh aliquot of wash buffer. Cells were incubated with 50 μl of primary antibodies monoclonal anti-human transglutaminase (IgG) obtained from Amersham (mouse) diluted 1:300 in wash buffer for one hour, 37° C. then rinsed two times with wash buffer. Cells were then incubated with 50 μl of secondary antibody (Feb fragment, peroxidase conjugated anti-mouse IgG obtaining from Amersham) diluted 1:200 in wash buffer for one hour at 37° C., then rinsed two times with wash buffer. Cells were incubated with substrate solution (4 mg o-phenylene diamine and 3.3 μl 30% H2 O2 in 10 ml 0.1M citrate buffer pH 5.0) for five minutes, R/T, in darkness (under aluminum foil). The reaction was stopped by the addition of 50 μl 4N H2 SO4. The absorbance of samples was read at 492 nm in the plate reader. Out of the six replicates, four were treated with both antibodies, two were treated only with the secondary antibody (i.e., to determine background binding of enzyme conjugated Ab). TGase levels were determined by subtracting background from the readings from each treatment and determining mean ±s.d. for the replicates exposed to both Ab.

[2] = concentrations as in the respective Example
[3] = Table 3B, RA, RP 2.5 × 10^-7 M, linoleoyl-DEA 10^-6 M, alone or combined, n = 3
[4] = Table 4A, RA, retinol 2.5 × 10^-7 M, cocoyl-DEA 10^-7 M, alone or combined, n = 3
[5] = Table 4B, RA, retinol 2.5 × 10^-8 M, cocoyl-MEA 10^-8 M, alone or combined, n = 3
[6] = Table 5B, RA, retinol 2.5 × 10^-8 M, methyl linoleate 10^-8 M, alone or combined, n = 3

CC1=C(/C=C/C(C)=C/C=C/C(C)=C/C(=O)O)C(C)(C)CCC1 [RA, retinoic acid]
increase of thymidine incorporation/proliferation over ethanol control (Human keratinocytes; Example 2A, RA, linoleoyl-DEA 10^-9 M): 26% | increase of thymidine incorporation/proliferation over ethanol control (Human keratinocytes; Example 4C, RA, palmitoyl-MEA 10^-6 M): 16% | increase of thymidine incorporation/proliferation over ethanol control (Human keratinocytes; Example 4D, RA, linoleoyl-MEA 10^-9 M): 47% | activity at 0.25 µM (Human keratinocytes; Homo sapiens, Keratinocyte, 24 h, Table 1A, first RA/ROH pair, 2.5 × 10^-7 M, 24 h, n = 3, read-out: thymidine incorporation, % control): 118% | activity at 0.25 µM (Human keratinocytes; Homo sapiens, Keratinocyte, 24 h, Table 1A, second RA/ROH pair, 2.5 × 10^-7 M, 24 h, n = 3, read-out: thymidine incorporation, % control): 128% | activity at 0.25 µM (Human keratinocytes; Homo sapiens, Keratinocyte, 24 h, Table 1A, third RA/ROH pair, 2.5 × 10^-7 M, 24 h, n = 3, read-out: thymidine incorporation, % control): 122% | activity at 0.0025 µM (Human keratinocytes; Homo sapiens, Keratinocyte, 24 h, Table 3A, RA 2.5 × 10^-9 M, RP 2.5 × 10^-7 M, linoleoyl-DEA 10^-8 M, alone or combined, n = 3, read-out: thymidine incorporation, % control): 117% | activity at 0.25 µM (Human keratinocytes; Homo sapiens, Keratinocyte, 24 h, Table 7A, 2.5 × 10^-7 M, 24 h, n = 9, read-out: mean Thymidine incorp/μg protein ± s.d): 113 ± 10.9% | activity at 0.25 µM (Human keratinocytes; Homo sapiens, Keratinocyte, 24 h, Table 7A, 2.5 × 10^-7 M, 24 h, n = 9, read-out: thymidine incorporation, % control): 113% | activity at 0.025 µM (Human keratinocytes; Homo sapiens, Keratinocyte, 24 h, Table 7A, 24 h, n = 9, read-out: mean Thymidine incorp/μg protein ± s.d): 125 ± 13.9% | activity at 0.025 µM (Human keratinocytes; Homo sapiens, Keratinocyte, 24 h, Table 7A, 24 h, n = 9, read-out: thymidine incorporation, % control): 126% | activity at 0.0025 µM (Human keratinocytes; Homo sapiens, Keratinocyte, 24 h, Table 7A, 2.5 × 10^-9 M, 24 h, n = 9, read-out: mean Thymidine incorp/μg protein ± s.d): 121 ± 12.8% | activity at 0.0025 µM (Human keratinocytes; Homo sapiens, Keratinocyte, 24 h, Table 7A, 2.5 × 10^-9 M, 24 h, n = 9, read-out: thymidine incorporation, % control): 121% | activation at 0.0025 µM (Human keratinocytes; Homo sapiens, Keratinocyte, read-out: increase of thymidine incorporation/proliferation over ethanol control): 17% | mean Thymidine incorp./μg protein ± s.d (Human keratinocytes; Table 1A, first RA/ROH pair, 2.5 × 10^-7 M, 24 h, n = 3): 2475 ± 116 DPM/μg protein | mean Thymidine incorp./μg protein ± s.d (Human keratinocytes; Table 1A, second RA/ROH pair, 2.5 × 10^-7 M, 24 h, n = 3): 2686 ± 72 DPM/μg protein | mean Thymidine incorp./μg protein ± s.d (Human keratinocytes; Table 1A, third RA/ROH pair, 2.5 × 10^-7 M, 24 h, n = 3): 2556 ± 80 DPM/μg protein | mean Thymidine incorp./μg protein ± s.d (Human keratinocytes; Table 2A, RA, ROH 2.5 × 10^-8 M, linoleoyl-DEA 10^-9 M, alone or combined, 24 h, normalized to ethanol control, n = 9): 1.255 ± 0.139 | mean Thymidine incorp./μg protein ± s.d (Human keratinocytes; Table 3A, RA 2.5 × 10^-9 M, RP 2.5 × 10^-7 M, linoleoyl-DEA 10^-8 M, alone or combined, n = 3): 1990 ± 61 DPM/μg protein | mean Thymidine incorp./μg protein ± s.d (Human keratinocytes; Table 4C, RA, retinol 2.5 × 10^-8 M, palmitoyl-MEA 10^-6 M, alone or combined, control = 1.000, n = 3): 1.164 ± 0.113 | thymidine incorporation, % control (Human keratinocytes; Table 4C, RA, retinol 2.5 × 10^-8 M, palmitoyl-MEA 10^-6 M, alone or combined, n = 3, 1440 min): 116% | thymidine incorporation, % control (Human keratinocytes; Table 4D, RA, ROH 2.5 × 10^-8 M, linoleoyl-MEA 10^-9 M, alone or combined, 24 h, n = 3): 147% | mean Thymidine incorp./μg protein ± s.d (Human keratinocytes; Table 4D, RA, ROH 2.5 × 10^-8 M, linoleoyl-MEA 10^-9 M, alone or combined, 24 h, normalized to ethanol control, n = 3): 1.47 ± 0.36 | effect on keratinocyte proliferation, in words (Human keratinocytes; [2]): significantly increased keratinocyte proliferation; also recorded: increased thymidine incorporation | activity at 0.25 µM ([1]; Homo sapiens, Keratinocyte, 72 h, Table 1B, 2.5 × 10^-7 M, 72 h, n = 3, read-out: Transglutaminase level, % control): 20% | activity at 0.025 µM ([1]; Homo sapiens, Keratinocyte, 72 h, Table 1B, 2.5 × 10^-8 M, 72 h, n = 3, read-out: Transglutaminase level, % control): 62% | activity at 0.0025 µM ([1]; Homo sapiens, Keratinocyte, 72 h, Table 1B, 2.5 × 10^-9 M, 72 h, n = 3, read-out: Transglutaminase level, % control): 84% | activity at 1 µM ([1]; Homo sapiens, Keratinocyte, Table 5A, RA, retinol 2.5 × 10^-7 M, linoleic acid 10^-6 M, alone or combined, n = 3, read-out: TGase (TG1) level, % control): 0% | activity at 0.25 µM ([1]; Homo sapiens, Keratinocyte, Table 8A, 2.5 × 10^-7 M, n = 3, read-out: TGase, % control): 34% | activity at 0.025 µM ([1]; Homo sapiens, Keratinocyte, Table 8A, 2.5 × 10^-8 M, n = 3, read-out: TGase, % control): 64% | activity at 0.0025 µM ([1]; Homo sapiens, Keratinocyte, Table 8A, 2.5 × 10^-9 M, n = 3, read-out: TGase, % control): 87% | activity at 0.25 µM ([1]; Homo sapiens, Keratinocyte, Table 8B, 2.5 × 10^-7 M, n = 3, read-out: TGase, % control): 12% | mean Transglutaminase ELISA level ± s.d ([1]; Table 1B, 2.5 × 10^-7 M, 72 h, n = 3): 0.088 ± 0.015 | mean Transglutaminase ELISA level ± s.d ([1]; Table 1B, 2.5 × 10^-8 M, 72 h, n = 3): 0.268 ± 0.068 | mean Transglutaminase ELISA level ± s.d ([1]; Table 1B, 2.5 × 10^-9 M, 72 h, n = 3): 0.360 ± 0.067 | TGase (TG1) level, % control ([1]; Table 2B, RA, ROH 2.5 × 10^-7 M, linoleoyl-DEA 10^-6 M, alone or combined, 72 h, n = 9): 28% | mean TGase ± s.d ([1]; Table 2B, RA, ROH 2.5 × 10^-7 M, linoleoyl-DEA 10^-6 M, alone or combined, 72 h, normalized to ethanol control, n = 9): 0.283 ± 0.470 | TGase (TG1) level, % control [1, 3]: 33% | mean TGase ± s.d [1, 3]: 0.073 ± 0.022 | TGase (TG1) level, % control [1, 4]: 33% | mean TGase ± s.d [1, 4]: 0.058 ± 0.098 | TGase (TG1) level, % control [1, 5]: 29% | mean TGase ± s.d [1, 5]: 0.036 ± 0.009 | mean TGase ± s.d ([1]; Table 5A, RA, retinol 2.5 × 10^-7 M, linoleic acid 10^-6 M, alone or combined, n = 3): -0.004 ± 0.103 | TGase (TG1) level, % control [1, 6]: 32% | mean TGase ± s.d [1, 6]: 0.092 ± 0.030 | mean TGase level ± s.d ([1]; Table 6A (Effect on Keratinocyte TGase), RA, ROH 2.5 × 10^-7 M, formamide 10^-7 M, alone or combined, 72 h, n = 3): 0.137 ± 0.024 | TGase (TG1) level, % control ([1]; Table 6A, RA, ROH 2.5 × 10^-7 M, formamide 10^-7 M, alone or combined, 72 h, n = 3): 28% | mean TGase level ± s.d ([1]; Table 6B (Effect on Keratinocyte TGase), RA, ROH 2.5 × 10^-7 M, acetamide 10^-7 M, alone or combined, 72 h, n = 3): 0.226 ± 0.069 | TGase (TG1) level, % control ([1]; Table 6B, RA, ROH 2.5 × 10^-7 M, acetamide 10^-7 M, alone or combined, 72 h, n = 3): 46% | mean TGase level ± s.d ([1]; Table 6C (Effect on Keratinocyte TGase), RA, ROH 2.5 × 10^-7 M, pentanoyl-DEA 10^-7 M, alone or combined, 72 h, n = 3): 0.088 ± 0.015 | mean TGase ± s.d ([1]; Table 8A, 2.5 × 10^-7 M, n = 3): 0.073 ± 0.022 | mean TGase ± s.d ([1]; Table 8A, 2.5 × 10^-8 M, n = 3): 0.138 ± 0.034 | mean TGase ± s.d ([1]; Table 8A, 2.5 × 10^-9 M, n = 3): 0.190 ± 0.091 | mean TGase ± s.d ([1]; Table 8B, 2.5 × 10^-7 M, n = 3): 0.015 ± 0.025 | effect on keratinocyte TG1 levels / differentiation, in words [1, 2]: decreased keratinocyte differentiation; also recorded: repressed keratinocyte TG 1 levels completely; also recorded: significantly decreased keratinocyte TGase levels; also recorded: decreased transglutaminase I levels

From patent US5599548A, “Skin care compositions containing fatty acid amides and retinol or retinyl ester” (priority 1995, dated 1997)
